Measured values published in US20260117274A1, “ORTHOGONALLY CROSSLINKED PROTEINS, METHODS OF MAKING, AND USES THEREOF” (The Research Foundation for The State University of New York, priority 2022, published 2026).

Assays:
[1] = cited from earlier work
[2] = NMR-based stability assay toward glutathione; type: physicochemical; settings: 10 mM glutathione in PBS for 3 days
From the text: We envisioned this acyl transfer-based crosslinking could proceed under neutral conditions if we can identify an appropriate genetically encoded leaving group. To this end, we considered a panel of azoles with pKa values ranging from 19.8 to 8.2, and a varying degree of leaving group effect (FIG. 1a). […] Thus, we designed a series of N-carboxy-4-aryl-1,2,3-triazole-containing lysines (CATK-1-7) as well as three analogous triazolyl lysines, CATK-8, -8a, and -9, for comparison purposes (FIG. 1b). For the synthesis of CATK-1-9, the critical step involved the triphosgene-mediated coupling of aryl- or alkyl-substituted triazoles with a protected lysine. While there was no apparent selectivity for N^2-carbamoylated CATKs, the two regioisomers can be readily separated by flash chromatography. After deprotection, CATK-1-9 were obtained in 7-52% yields. […] Since analogous 1,2,4-triazoles have also been used in designing small-molecule probes for serine hydrolases, we synthesized 1,2,4-triazole-based CATK-9 in four steps with an overall yield of 43%.
In our efforts to identify genetically encoded amino acids that are stable under physiological conditions yet reactive upon photoactivation or through proximity effect, we were intrigued by β-lactam, a venerable chemical moiety found in penicillin and other β-lactam class of antibiotics. […]

wild-type PylRS = target: T1, wild-type PylRS (Methanosarcina mazei, UniProt Q8PWY1); test: Fluorescence-based detection of BeLaK incorporation into sfGFP-Q204TAG; type: cell-based; settings: 1 mM BeLaK
T1 construct: expressed in transfected cells; host or cells: E. coli BL21(DE3) transformed with pEVOL-PylRS
From the text: (§1) To identify an aminoacyl-tRNA synthetase/tRNA pair for charging two phenylalanine derivatives, we screened our collection of pyrrolysine-tRNA synthetases (PylRS) (Table 1) using superfolder green fluorescent protein bearing an amber codon at position-204 (sfGFP-Q204TAG) as a reporter without success (FIG. 37). In parallel, to our delight, we found wild-type PylRS efficiently charges BeLaK into sfGFP-Q204TAG, with the cell lysate showing a 75-fold increase in fluorescence over the background, similar to BocK, a known substrate for wild-type PylRS (FIG. 32b). We also obtained the crystal structure of a protected BeLaK analog S11 (FIG. 38). We note the lactam ring forms an intramolecular H-bond with the lysine ε-N—H (FIG. 32a), mimicking the pyrroline ring in pyrrolysine—the native substrate of PylRS.
Site-specific incorporation of BeLaK into sfGFP. BL21(DE3) cells (50 μL) were co-transformed with the pET-sfGFP-Q204TAG and pEVOL-PylRS plasmids using the heat shock method. The cells were recovered in 900 μL SOC at 37° C. for 1 hour before plating onto a Luria-Bertani (LB) agar plate containing 100 μg/mL ampicillin and 34 μg/mL chloramphenicol. A single colony from the plate was used to inoculate 6 mL LB broth containing 100 μg/mL ampicillin and 34 μg/mL chloramphenicol. […] The supernatant was directly used for fluorescence tests after sonication and centrifugation. […]

[3] = Stability under bacterial culture conditions (intact mass of sfGFP mutants)
From the text: (§2) To identify pyrrolysine-tRNA synthetase (PylRS) variants that can charge CATKs, we co-transformed BL21(DE3) cells with two plasmids: pEVOL-PylRS encoding PylRS and tRNACUA, and pET-sfGFP-Q204TAG encoding sfGFP bearing an amber codon. We screened a panel of PylRS variants (Table 1), and found one carrying Y306V, L309A, C348F, and Y384F mutations, hereafter referred to as CATKRS, can charge CATK-1, -2, -4, and -7 site-specifically into sfGFP (FIGS. 2b and 10). The incorporations were also confirmed by SDS-PAGE (FIG. 10) and QTOF-LC/MS analyses (FIGS. 2c and 11). Some amount of GSH adducts (˜30%) were detected, presumably due to the high reactivity of CATKs at position-204, a site on sfGFP that is completely solvent exposed.
as §1, with “We note the lactam ring forms an intramolecular H-bond with the lysine ε-N—H (FIG. 32a), mimicking the pyrroline ring in pyrrolysine—the native substrate of PylRS.” left out

[4] = system: mCherry-TAG-EGFP-HA reporter; test: Site-specific incorporation into mCherry-TAG-EGFP in HEK293T cells; type: cell-based, Human; settings: CATKRS/tRNA^Pyl, 0.5 mM CATK-1, fluorescence microscopy and western blot
From the text: (§3) To examine whether CATKs are compatible with genetic code expansion in mammalian cells, we first performed a cell viability assay by treating HEK293T cells with CATK-1 and -2 at various concentrations. […] We then cotransfected HEK293T cells with two plasmids: one encodes CATKRS/tRNA^Pyl, and the other encodes the mCherry-TAG-EGFP-HA reporter. The transfected cells were allowed to grow in DMEM supplemented with 10% FBS in the absence or presence of CATK-1.
Site-specific incorporation of CATK-1 into mCherry-TAG-EGFP in mammalian cells. Human Embryonic Kidney 293T (HEK293T) cells were seeded in a 12-well plate and grown in DMEM supplemented with 10% FBS (HyClone™ GE Healthcare Life Sciences) and 10 μg/mL Gentamycin (Gibco) and 2 μg/mL Plasmocin at 37° C., 5% CO2 until ˜90% confluency. The medium was replaced with DMEM, and cells were transfected by using polyethylenimine (Sigma-Aldrich) in Opti-MEM® (Gibco) with two plasmids (one encoding CATKRS/tRNAPyl CUA pair and another encoding mCherry-TAG-EGFP-HA). Six hours post-transfection, the medium was replaced with fresh DMEM with 10% FBS in the presence or absence of 0.5 mM CATK-1. After 24 hours, live cell images were recorded using the Lionheart™ FX automated microscope (BioTek). The cells were lysed by modified RIPA buffer (25 mM Tris HCl, pH 7.4, 150 mM NaCl, 1% NP-40, 1% sodium deoxycholate, 0.1% SDS, 1 mM EDTA, 1 mM PSMF). […]

CATKRS = target: T2, CATKRS (Methanosarcina mazei, UniProt Q8PWY1, C348F/L309A/Y306V/Y384F); test: Fluorescence-based detection of CATK incorporation into sfGFP-Q204TAG in BL21(DE3) cells; type: cell-based; settings: 1 mM CATK
T2 construct: expressed in transfected cells; host or cells: E. coli BL21(DE3) transformed with pEVOL-CATKRS
From the text: as §2
Site-specific incorporation of CATK into sfGFP. BL21(DE3) cells (50 μL) were co-transformed with the pET-sfGFP-Q204TAG and pEVOL-CATKRS plasmids using the heat shock method. The cells were recovered in 900 μL SOC at 37° C. for 1 hour before plating onto a Luria-Bertani (LB) agar plate containing 100 μg/mL ampicillin and 34 μg/mL chloramphenicol. A single colony from the plate was used to inoculate 6 mL LB broth containing 100 μg/mL ampicillin and 34 μg/mL chloramphenicol. One hundred twenty […] overnight culture was used to inoculate 12 mL LB broth containing the same concentrations of antibiotics. […] The culture was divided into two 6-mL portions. […] The cultures were incubated in an incubator-shaker (37° C., 280 rpm) for 8 hours. […] The supernatant was directly used for fluorescence tests after sonication and centrifugation. […] The mixture was incubated for 2 hours with gentle shaking.

HEK293T cells = type: cell-based; settings: human, 24 h
From the text: as §3
Cell viability assay. One hundred μL exponentially growing HEK293T cells were seeded into a 96-well plate at a density of 5×10^5 cells per ml. After 24 h, the cells were treated with varying concentrations of CATK amino acids and then incubated at 37° C. for 24 h. Then, 10 μL CCK-8 solution (Dojindo) was added to each well and the cells were further incubated in 37° C. incubator for 1 h. The plates were read immediately using Biotek microtiter plate reader at 450 nm.

T2 sequence (Q8PWY1 whole entry Y306V/L309A/C348F/Y384F): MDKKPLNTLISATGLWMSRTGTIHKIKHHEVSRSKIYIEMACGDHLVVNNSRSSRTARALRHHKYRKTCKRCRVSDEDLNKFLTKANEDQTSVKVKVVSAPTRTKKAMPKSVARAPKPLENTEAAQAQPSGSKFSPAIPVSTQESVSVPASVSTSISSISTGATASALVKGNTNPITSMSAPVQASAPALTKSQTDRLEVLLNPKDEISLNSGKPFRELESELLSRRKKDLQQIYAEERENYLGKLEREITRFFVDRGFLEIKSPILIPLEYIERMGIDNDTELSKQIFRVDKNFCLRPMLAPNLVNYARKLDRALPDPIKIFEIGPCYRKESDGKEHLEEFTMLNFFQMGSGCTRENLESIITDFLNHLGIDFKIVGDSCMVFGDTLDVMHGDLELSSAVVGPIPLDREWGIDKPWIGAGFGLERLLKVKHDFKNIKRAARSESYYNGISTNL
T1 sequence (Q8PWY1 whole entry): as the sequence (Q8PWY1 whole entry Y306V/L309A/C348F/Y384F) above, with V306Y, A309L, F348C, F384Y counted along it

Compound	stability after incubation with glutathione [2]	site-specific charging into sfGFP by CATKRS (CATKRS)	also measured
c1cn[nH]n1 [2H-1,2,3-trizole]			pKa [1]: 9.4
N[C@@H](Cc1ccc(N2CCC2=O)cc1)C(=O)O [BeLaF-2, (S)-2-amino-3-(4-(2-oxoazetidin-1-yl)phenyl)propanoic acid]	remained intact		
N[C@@H](CCCCNC(=O)N1CCC1=O)C(=O)O [BeLaK, N^6-(2-Oxoazetidine-1-carbonyl)-L-lysine]	remained intact		increase in fluorescence of cell lysate over the background (wild-type PylRS): 75 fold; stability under bacterial culture conditions [3]: stable under bacterial culture conditions
N[C@@H](CCCCNC(=O)n1ncc(-c2ccccc2)n1)C(=O)O [CATK-1, N^6-(4-Phenyl-2H-1,2,3-triazole-2-carbonyl)-L-lysine]		can charge	incorporation into mCherry-TAG-EGFP-HA [4]: successful CATK-1 incorporation; concentrations at which cytotoxicity was not detected (HEK293T cells): ≤ 500 µM
N[C@@H](CCCCNC(=O)n1ncc(-c2cccs2)n1)C(=O)O [CATK-4, N^6-(4-(Thiophen-2-yl)-2H-1,2,3-triazole-2-carbonyl)-L-lysine]		can charge	
Cn1cccc1-c1cnn(C(=O)NCCCC[C@H](N)C(=O)O)n1 [CATK-7, N^6-(4-(1-Methyl-1H-pyrrol-2-yl)-2H-1,2,3-triazole-2-carbonyl)-L-lysine]		can charge	
